Key:
[1] = test system: Xenograft models of small cell lung cancer (SCLC), non-small cell lung cancer (NSCLC), acute myeloid leukemia (AML) and non-Hodgkin's lymphoma; conditions: cited from earlier work
PRMT5 = PRMT5 (Homo sapiens (Human), UniProt O14744); assay: Inhibitory activity against PRMT5 enzyme by radioisotopic method; type: biochemical; conditions: PRMT5 5 nM, [3H]-SAM 0.3 μM, polypeptide substrate GL-27 100 nM, room temperature
Method in brief: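 PRMT5 (5 nM) preincubated with compound and [3H]-SAM (0.3 μM) 60 min at RT in Tris pH 8.0/Tween-20/DTT, 1% DMSO; biotinylated GL-27 peptide (100 nM) added, 120 min RT, stopped with cold SAM. Peptide captured on streptavidin FlashPlate, CPM counted; IC50 from four-parameter fit of % inhibition.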

Chain of PRMT5 (O14744 whole entry): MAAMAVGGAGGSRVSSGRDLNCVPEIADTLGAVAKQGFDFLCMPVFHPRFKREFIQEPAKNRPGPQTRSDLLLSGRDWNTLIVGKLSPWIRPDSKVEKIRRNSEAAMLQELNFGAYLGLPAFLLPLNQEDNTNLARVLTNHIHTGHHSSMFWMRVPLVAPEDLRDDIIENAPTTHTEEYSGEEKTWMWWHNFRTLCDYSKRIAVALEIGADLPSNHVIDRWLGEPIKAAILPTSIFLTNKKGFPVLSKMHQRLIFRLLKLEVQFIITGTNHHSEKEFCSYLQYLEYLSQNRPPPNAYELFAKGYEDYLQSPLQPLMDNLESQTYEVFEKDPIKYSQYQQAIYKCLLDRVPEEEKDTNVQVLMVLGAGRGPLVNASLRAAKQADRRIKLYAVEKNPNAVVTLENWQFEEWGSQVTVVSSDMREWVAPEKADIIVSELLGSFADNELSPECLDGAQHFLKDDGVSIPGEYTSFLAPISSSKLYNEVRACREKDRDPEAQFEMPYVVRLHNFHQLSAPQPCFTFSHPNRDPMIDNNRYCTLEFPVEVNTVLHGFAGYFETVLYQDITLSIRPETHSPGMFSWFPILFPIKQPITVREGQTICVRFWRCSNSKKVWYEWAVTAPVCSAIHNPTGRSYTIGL
Chain of PRMT5 (Q9BQA1 whole entry partner): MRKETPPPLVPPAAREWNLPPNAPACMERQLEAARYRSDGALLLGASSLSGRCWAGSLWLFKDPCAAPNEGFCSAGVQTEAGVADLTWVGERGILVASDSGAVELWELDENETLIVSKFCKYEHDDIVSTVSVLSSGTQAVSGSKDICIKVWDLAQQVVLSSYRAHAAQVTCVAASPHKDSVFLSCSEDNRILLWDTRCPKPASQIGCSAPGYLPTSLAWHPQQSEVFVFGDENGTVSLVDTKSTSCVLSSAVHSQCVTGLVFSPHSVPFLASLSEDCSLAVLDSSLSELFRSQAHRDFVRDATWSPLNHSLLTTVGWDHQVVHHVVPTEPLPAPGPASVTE

In the case of `Nc1nc2cc(CC[C@H]3C[C@@H](n4ccc5c(N)ncnc54)[C@H](O)[C@@H]3O)ccc2cc1Br` [JNJ-64619178], the tumor growth inhibited [1] is listed as “up to 99%”.

For `COc1cccc(Nc2cc(N3CC[C@H](N4CCc5ccccc5C4)[C@@H](O)C3)ncn2)c1` (relative stereo) [Example 47, trans-1-(6-((3-methoxyphenyl)amino)pyrimidin-4-yl)-4-(3,4-dihydroisoquinolin-2(1H)-yl)piperidin-3-ol], the IC50 (PRMT5) was less than 100 nM.

Reference: patent US20240336593A1, “Compound Having Antitumor Activity And Use Thereof” (lnnovStoneTherapeutics Limited, priority 2020, published 2024)
